Laboratory results reported in publication PMC5515859, “Metabolism of F18, a Derivative of Calanolide A, in Human Liver Microsomes and Cytosol” (Frontiers in Pharmacology, 2017).

What was measured:
[1] = Pharmacokinetics in rats after oral administration of F18; format: in vivo, Sprague-Dawley rats; conditions: oral F18 50 mg/kg; for Cmax / Tmax / half-life / MRT last / MRT inf: Sprague-Dawley; for Cmax / Tmax / half-life / MRT last / MRT inf / AUC0−∞ / Systemic exposure relative to that of the parent drug: rat blood; for Cmax / Tmax / half-life / MRT last / MRT inf / AUC0−∞: mean ± SD, n = 5; for MRT last: read-out: MRT0−t; for MRT inf: read-out: MRT0−∞; for Systemic exposure relative to that of the parent drug: from AUC0−∞
Protocol: To investigate the pharmacokinetic characteristics of F18 and its major metabolites, five rats were intragastrically administered F18 at a dose of 50 mg/kg. Blood samples were collected in heparinized ice-bath tubes from the suborbital veniplex at 0, 0.25, 0.5, 1, 2, 4, 6, 8, 12, 16, and 24 h postdose. The blood concentrations of F18 and its major metabolites were determined by LC-MS/MS and their pharmacokinetic parameters were calculated through non-compartmental analysis using WinNonlin Version 6.1 (Pharsight, Mountain View, CA, USA).
For the blood samples, F18, M1, M3-1, and M3-2 were simultaneously quantified using the following elution gradient: Solvent B was maintained at 15% for 2 min, increased to 85% in 1 min, maintained at 85% for 5 min, decreased to 15% in 0.5 min and maintained at 15% for 4.5 min. Detection was also performed using a Finnigan TSQ Quantum MS instrument with an electrospray ionization probe operated in the positive mode.
Calibration curves for F18 and its metabolites were fitted via linearly weighted (1/x^2) least-squares regression. The correlation coefficient values of F18 and its metabolites in the incubations were >0.99 for the range 10–5,000 nM; the LOQ was 10 nM with a signal-to-noise ratio >10:1; the accuracies were 90–113% and the precisions (RSD) were <10.5%. In the blood samples, the correlation coefficient values for F18, M1, M3-1, and M3-2 were >0.99 for the range 5–2,000 nM; the LOQ was 5 nM with the signal-to-noise ratio >10:1; the accuracies were 91–112% and the precisions (RSD) were <9.6%. In addition, no interference was found in the retention time of each analyte in both the incubated samples and the blood samples.

monkey liver microsomes = assay: Incubation of F18 with monkey liver microsomes, metabolite profiling; format: in vitro ADME; design: key: +: Metabolite detected; −: metabolite not detected; conditions: F18 50 μM, 1 h
Protocol: (§1) A stock solution of F18 (5 mM) was prepared in methanol. F18 (50 μM) was incubated with RLMs/DLMs/MLMs/HLMs and HLcy (0.5 mg protein/mL) in 50 mM Tris-HCl buffer containing 5 mM MgCl2 (pH 7.4) in a final volume of 200 μL. The final concentration of methanol in the incubation system was 1% (v/v). After 3 min of preincubation at 37°C, the reactions were initiated by the addition of NADPH-regenerating system (10-mM β-NADP, 100-mM 6-G-P and 10-U/mL 6-G-P-DH) or NADH. After incubation for 1 h, the reactions were terminated by the addition of two volumes of ice-cold acetonitrile. Samples without NADPH or NADH were included as controls. The incubation mixture was vortexed and centrifuged at 13,300 × g for 5 min. A 10 μL aliquot of the supernatant was injected into an LC-tandem mass spectrometer (LC-MS/MS) for analysis.
(§2) Metabolic profiling studies were performed with a Finnigan TSQ Quantum MS instrument with an electrospray ionization probe and a Finnigan SURVEYOR HPLC system (Thermo Finnigan, San Jose, CA, USA). HPLC was performed with a Zorbax SB-C18 column (2.1 × 100 mm, 3.5 μm, Agilent Corporation, CA, USA) with a column temperature of 35°C and a flow rate of 200 μL/min. F18 and its metabolites were eluted using a linear gradient method with a mobile phase consisting of solvent A (water with 0.1% formic acid) and solvent B (acetonitrile with 0.1% formic acid). […] The samples were analyzed in the positive-ionization mode, and the TSQ capillary temperature was set to 350°C. Nitrogen was used as both the sheath gas and the auxiliary gas and was delivered at 30 psi and 15 psi, respectively. The spray voltage and tube lens were set to 3,800 V and 123 V, respectively. The full-width half maximum (FWHM) was set to 0.7. MS data were acquired in the selective ion-recording mode or by collecting full scans from 200 to 600 m/z at 1 scan/s. The mass spectrometer and HPLC system were operated using Xcalibur 2.0.7 software.

recombinant FMO5 = target: T1, recombinant FMO5 (Homo sapiens, UniProt P49326); assay: Metabolism of F18 by cDNA-expressed FMO5; format: in vitro ADME; conditions: F18 10 μM, 50 pmol/mL enzyme, 1 h
T1 construct: purchased BD Gentest (Woburn, MA, USA)
T1 sequence (P49326 1-533): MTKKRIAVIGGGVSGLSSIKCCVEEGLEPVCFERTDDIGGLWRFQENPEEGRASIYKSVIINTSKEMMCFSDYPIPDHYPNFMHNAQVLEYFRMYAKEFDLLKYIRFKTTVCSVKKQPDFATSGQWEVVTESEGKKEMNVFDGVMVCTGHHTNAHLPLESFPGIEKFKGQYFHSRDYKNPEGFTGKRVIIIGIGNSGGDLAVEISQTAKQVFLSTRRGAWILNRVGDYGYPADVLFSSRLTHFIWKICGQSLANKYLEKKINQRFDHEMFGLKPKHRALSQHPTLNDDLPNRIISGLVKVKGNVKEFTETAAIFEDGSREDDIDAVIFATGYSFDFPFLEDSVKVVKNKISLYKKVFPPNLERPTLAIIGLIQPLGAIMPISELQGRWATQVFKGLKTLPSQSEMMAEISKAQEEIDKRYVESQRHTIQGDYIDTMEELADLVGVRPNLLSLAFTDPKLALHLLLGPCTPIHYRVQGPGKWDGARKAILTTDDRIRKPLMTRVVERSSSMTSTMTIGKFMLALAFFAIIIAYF
Protocol: To further verify the roles of CYPs and FMOs in the metabolism of F18 in humans, F18 (10 μM) was incubated individually with 14 cDNA-expressed human CYP isozymes (50-pmol/mL CYP1A1, CYP1A2, CYP2A6, CYP2B6, CYP2C8, CYP2C9, CYP2C19, CYP2D6, CYP2E1, CYP2J2, CYP3A4, CYP4F2, CYP4F3, and CYP4A11) and three cDNA-expressed FMO enzymes (50-pmol/mL FMO1, FMO3, and FMO5). The incubation conditions were similar to those used for HLMs (described above), with the exception of the incubating time […]. Samples incubated without NADPH were used as the negative control.

rat liver microsomes = assay: Incubation of F18 with rat liver microsomes, metabolite profiling; format: in vitro ADME; design: key: +: Metabolite detected; −: metabolite not detected; conditions: F18 50 μM, 1 h
Protocol: as §1, §2

human liver cytosol = assay: Incubation of F18 with human liver cytosol, metabolite profiling; format: in vitro ADME; design: key: +: Metabolite detected; −: metabolite not detected; conditions: F18 50 μM, 1 h
Protocol: as §1, §2

VSV-G/HIV-1 viruses = assay: microbe, parasite or virus in culture; format: cell-based; conditions: for IC50: Human immunodeficiency virus 1, HEK-293T, 48 h, read-out: IC50, inhibition of HIV-1 replication

| SMILES | Cmax [1] [nM] | Tmax [1] [h] | half-life [1] [min] | MRT last [1] [h] | MRT inf [1] [h] | Concentration in rat blood (in words) [1] | AUC0−∞ [1] | Systemic exposure relative to that of the parent drug [1] [%] | F18 metabolite detected in MLM (monkey liver microsomes) | Metabolite detected in incubation with recombinant FMO5 (recombinant FMO5) | F18 metabolite detected in RLM (rat liver microsomes) | F18 metabolite detected in HLcy with NADH (human liver cytosol) | F18 metabolite detected in HLcy with NADPH (human liver cytosol) | IC50 (VSV-G/HIV-1 viruses) [nM] | Potency against HIV-1 relative to the parent compound (VSV-G/HIV-1 viruses) |
| --- | --- | --- | --- | --- | --- | --- | --- | --- | --- | --- | --- | --- | --- | --- | --- |
| CCCc1cc(=O)oc2c3c(c4c(c12)OC(C)(C)C=C4)O[C@H](CCl)C[C@H]3O (relative stereo) [Metabolite M3-1, trans-12-hydroxy F18] | 165 ± 50.9 | 4 ± 2.3 | 204 ± 38.4 | 8.6 ± 0.6 | 8.9 ± 0.7 | detected in high concentrations | 1,965 h^*nM | ~38 | + | detected | + | + | + | 34 |  |
| CCCc1cc(=O)oc2c3c(c4c(c12)OC(C)(C)C=C4)O[C@H](CCl)C[C@@H]3O (relative stereo) [Metabolite M3-2, cis-12-hydroxy F18] | 219 ± 51.2 | 4 ± 2.3 | 180 ± 24 | 8.8 ± 1.2 | 13.2 ± 7.2 | detected in high concentrations | 3,353 h^*nM | ~65 | + | detected | + | + | + | 51 |  |
| CCCc1cc(=O)oc2c3c(c4c(c12)OC(C)(C)C=C4)OC(CO)CC3=O (centres unmarked) [Metabolite M1] | 274 ± 111 | 4 ± 1.6 | 288 ± 126 | 8.4 ± 0.5 | 9.4 ± 1.5 | detected in high concentrations | 3,290 h^*nM |  | + | not detected | + | − | − |  | one fifth |
